From US20100189660A1, “METHODS FOR THE DETECTION OF FATTY-ACYLATED PROTEIN” (Genentech, Inc., priority 2009, published 2010)

How the values were obtained:
MDCK cells [1] = experiment: Hydroxylamine-sensitive assay of alkyne-labeled proteins (thioester vs amide linkage); type: cell-based, canine; conditions: blots treated with 5% hydroxylamine for 72 h
Description: These experiments validate the utility of C14 and C16 ω-alkynyl fatty-acyls as probes for protein myristoylation and palmitoylation, respectively.
(§1) Western blotting: Labeled protein lysates were resolved by SDS page using a 4-20% Tris-glycine gel (1 h 10 min at 180V). For immunoblotting of biotin-labeled proteins after electrophoresis, proteins were transferred onto a nitrocellulose membrane, which was blocked with PBS, 0.1% Tween-20 [PBST] and 5% non-fat dried milk for 2 h at RT or overnight at 4° C. The membrane was washed three times with PBST (5 minutes each), and incubated with streptavidin-horseradish peroxidase (Invitrogen Zymed #43-4323, 1:1250 in PBST) for 1 h at RT. The membrane was washed with PBST three times (10 min each) and developed using enhanced chemiluminescence according to manufacturer's recommendation (Amersham Biosciences). For the hydroxylamine-sensitive assay, following the transfer of proteins to nitrocellulose membranes, the membranes were incubated 65 to 72 h at RT with PBST and 5% NH2OH (Sigma-Aldrich). After the hydroxylamine treatment, the membranes were blocked with 5% non-fat dried milk for 2 h at RT or overnight at 4° C. and analyzed by streptavidin blot as described above.

MDCK cells [2] = experiment: Metabolic incorporation of ω-alkynyl fatty-acyls onto cellular proteins, click with biotin-azide, streptavidin-HRP western blot; type: cell-based, canine; conditions: for degree of protein incorporation / time dependence of levels of labeled protein bands: 100 μM; for degree of protein incorporation: 24 h, western blot with streptavidin-HRP; for time dependence of levels of labeled protein bands: within 6 h; for dose dependence of metabolic incorporation: increasing concentration, at 4 h
Source text: Upon preparing the cellular proteome, the alkynyl group incorporated onto acylated proteins was chemoselectively ligated to azide-tagged biotin (for synthesis see Example 2) or fluorophore by a Cu(I)-catalyzed Huisgen alkyne-azide cycloaddition reaction (See, Wang, Q. et al. J. Am. Chem. Soc. 125, 3192-3193 (2003)) (FIG. 1C). The conjugated proteins were separated by gel electrophoresis and analyzed by Western blot using streptavidin-linked horseradish peroxidase (FIG. 2A). […] This was reasonable considering that the majority of protein lipid modifications in cells comprise myristoylation and palmitoylation.
Labeling and detection of lipoproteins in cell extracts: The ω-alkynl fatty-acyl compounds used for the examples were dissolved in DMSO to generate 50 mM stock solutions, and were stored at −80° C. Before cell treatment, the analogs were dissolved in DMEM serum-free media supplemented with 5% BSA (fatty acid-free—SIGMA EC232-936-2) and glutamax (for Raw and MDCK cell lines) at a final concentration of 100 μM. The fatty acid-media solutions were sonicated for 15 minutes at room temperature and then allowed to pre-complex for 15 min at RT.
Cells were seeded with complete media onto 6-well plates (8×10^5 cells/2 ml/well). They were incubated for 24 h before the treatment. Then the growth medium was removed, cells washed once with PBS and 2 mL of the ω-alkynyl fatty-acyls containing media was added to cells and incubated at 37° C. in a 5% CO2 humidified incubator. […] To obtain a final proteome concentration of 2 mg/ml (protein concentration determined by BCA kit) cell lysates were concentrated by centrifugation for 15 minutes at 14,000 rpm at 4° C. with the Centrifugal Ultrafiltration Devices (Pall centrifugal devices MWCO 3K, Nanosep device, cat # P/N ODOO3C34). Protein extracts were then subjected to the probe labeling reaction in 25 μL volume, for 1 h at RT (room temperature), at final concentrations of the following reagents (See, Speers, A. E. & Cravatt, B. F. Profiling enzyme activities in vivo using click chemistry methods. Chem Biol 11, 535-46 (2004); Hsu, T. L. et al. Alkynyl sugar analogs for the labeling and visualization of glycoconjugates in cells. Proc Natl Acad Sci USA 104, 2614-9 (2007)): 0.1 mM biotin-azide, 1 mM Tris (2-carboxyethyl)phosphine hydrochloride (TCEP, Sigma-Aldrich) dissolved in water, 0.2 mM Tris[(1-benzyl-1H-1,2,3-triazol-4-yl)methyl]amine (TBTA, Sigma-Aldrich) dissolved in DMSO/t-butanol (20%/80%) and 1 mM CuSO4 in PBS. The order of addition of the reagents to the protein extracts is important for the reaction and has to be followed as described above.
as §1

MDCK cells [3] = experiment: Specificity of incorporation: cycloheximide treatment and competition with myristic and palmitic acids; type: cell-based, canine; conditions: for probe specificity from competition experiments with myristic and palmitic acids: increasing concentration of myristic (MA) or palmitic acid (PA)
Description: MDCK cells were treated with C14 ω-alkynyl fatty acid (100 μM) in the presence or absence cycloheximide (100 μg/ml) for 5 h. Cellular proteome was prepared, reacted with biotin-azide, resolved by gel electrophoresis and detected by western blotting with streptavidin-HRP, as described using methods described herein. Asterisks denote bands labeled by treatment with probe but not in DMSO control; (B, C) Dose-dependent competition of C14 and C16 ω-alkynyl fatty acids with myristic (MA) and palmitic acids (PA), respectively. MDCK cells were treated with ω-alkynyl fatty acid probes as indicated in the presence of increasing concentration of myristic (MA) and palmitic acids (PA). Samples were processed as described herein.
The ω-alkynyl fatty-acyls were metabolically incorporated onto cellular proteins in a time- and dose-dependent manner.
Cells were seeded with complete media onto 6-well plates (8×10^5 cells/2 ml/well). They were incubated for 24 h before the treatment. Then the growth medium was removed, cells washed once with PBS and 2 mL of the ω-alkynyl fatty-acyls containing media was added to cells and incubated at 37° C. in a 5% CO2 humidified incubator. After 24 hours, the cells were washed three times with cold PBS and cell extracts were prepared by resuspending the cells in 400 μL of lysis buffer (1% Nonidet P-40/150 mM NaCl/protease and phosphatase inhibitor/100 mM sodium phosphate, pH 7.5). To obtain a final proteome concentration of 2 mg/ml (protein concentration determined by BCA kit) cell lysates were concentrated by centrifugation for 15 minutes at 14,000 rpm at 4° C. with the Centrifugal Ultrafiltration Devices (Pall centrifugal devices MWCO 3K, Nanosep device, cat # P/N ODOO3C34). […]
Western blotting: Labeled protein lysates were resolved by SDS page using a 4-20% Tris-glycine gel (1 h 10 min at 180V). […] After the hydroxylamine treatment, the membranes were blocked with 5% non-fat dried milk for 2 h at RT or overnight at 4° C. and analyzed by streptavidin blot as described above.

[4] = tested on: PC3 prostate cancer cells; experiment: Fluorescence microscopy of cellular fatty-acylated proteins; type: cell-based; conditions: for subcellular distribution of probe: PC3 cells, 100 μM, 3 h, confocal microscopy
Description: Cells were treated with DMSO or ω-alkynyl fatty-acyls (100 μM) as indicated for 3 h. The cells were then fixed, permeabilized and click reacted with rhodamine-azide and imaged by epifluorescence microscopy. […] All images were acquired the same way using 63× oil objective. The fluorescence along the z-axis is shown on top of each confocal section (Scale bar, 10 μm); (J, K, L) The distribution of lipid-modified proteins in different cellular states can be monitored by fluorescence imaging. […] The fluorescence along the z-axis is shown on the left-hand side of panel (K).
Cells were then fixed, permeabilized and click reacted with biotin-azide followed with treatment with streptavidin-conjugated Alexa488 and (optionally Hoechst stain for nuclei staining) and imaged using epifluorescence microscopy technique as described herein.
Fluorescence microscopy: Cells were seeded onto 12-well plates (4×10^5 cells/well) containing coverslips and incubated for 24 h before treatment. The growth medium was removed and cells were washed once with PBS before adding 1 mL of medium containing the co-alkynyl fatty acid at the indicated concentration. After 24-48 h incubation at 37° C./5% CO2, cells were washed three times with PBS to remove excess probe (ω-alkynyl fatty acid) and fixed with 4% paraformaldehyde (PFA) for 10 min at RT. Cells were then permeabilized with PBS/0.1% triton X-100 for 1-2 min at RT, washed extensively with the following reagents: 0.1 mM biotin-azide or rhodamine-azide, 1 mM Tris (2-carboxyethyl)phosphine hydrochloride (TCEP) dissolved in water, and 1 mM CuSO4 in PBS at RT for 1 h. The labeled cells were rinsed extensively with PBS and blocked in PBS/5% BSA for 45 min at RT. Cells were stained with streptavidin-conjugated AlexaFluor 488 (Invitrogen cat # S32354, 1:500) in PBS/5% BSA for 45 min at RT and nuclei were stained with Hoechst 33342 (MP # H21492; 1:10,000 in PBS) for 10 min at RT. For labeling with rhodamine-azide, cells were directly stained with Hoechst.

[5] = PC3 cells undergoing cell division, tubulin marker

Row | Compound | sensitivity of labeled proteins to hydroxylamine / type of linkage (MDCK cells [1]) | degree of protein incorporation (MDCK cells [2]) | time dependence of levels of labeled protein bands (MDCK cells [2]) | dose dependence of metabolic incorporation (MDCK cells [2]) | probe specificity from competition experiments with myristic and palmitic acids (MDCK cells [3]) | subcellular distribution of probe [4] | distribution of labeled proteins during cytokinesis [4, 5] | distribution of labeled proteins in metaphase cells [4, 5] | effect on protein labeling with C14 (MDCK cells [3]; C14 100 μM, cycloheximide 100 μg/ml, 5 h)
1 | C#CCCCCCCCC(=O)O [C11] | predominantly attach via thioester bonds | – | – | – | – | – | – | – | –
2 | C#CCCCCCCCCCCCC(=O)O [C14, 13-Tetradecyn-1-oic acid] | resistance to hydroxylamine treatment | highest degree of protein incorporation | time-dependent increase in the levels of labeled protein bands | dose-dependent metabolic incorporation | specific probes for protein N-myristoylation | distributed in a punctuate pattern outside the nucleus | – | – | –
3 | C#CCCCCCCCCCCCCCC(=O)O [C16, 15-Hexadecyn-1-oic acid] | substantial sensitivity to hydroxylamine | highest degree of protein incorporation | time-dependent increase in the levels of labeled protein bands | dose-dependent metabolic incorporation | S-palmitoylation | distributed in a punctuate pattern outside the nucleus | concentrate at the cleavage furrow | at the plasma membrane and in dense structures around the spindle and throughout the body | –
4 | C[C@@H]1C[C@@H]([C@H](O)CC2CC(=O)NC(=O)C2)C(=O)[C@@H](C)C1 [cycloheximide, reference compound] | – | – | – | – | – | – | – | – | inhibits protein labeling with C14
